Positions of bridges follow the written chain, without caps; N, C: chain ends. Chains are numbered I, II in the order given. No end group written: not given here.

One experiment has as its system AMJ2-C8 macrophages. As to the kind of experiment: TNF-α secretion from IL-1β-activated macrophages (L929 bioassay). It is filed as cell-based, mouse. Particulars: 1.2 pM IL-1β, 24 hours; TNF-α by L929 survival with actinomycin D; hydrocortisone at 100 μM. The protocol: A murine alveolar macrophage cell line, AMJ2-C8 (American Type Culture Collection, Borås, Sweden), was routinely grown at 37°C with 5% CO2 in DMEM supplemented with 5% (vol/vol) FCS, 0.5% (v/v) 2-[4-(2-hydroxyethyl)piperazin-1-yl]ethanesulfonic acid (HEPES) (Gibco BRL), 2 mM GlutaMAX, 100 U/ml penicillin and 100 μg/ml streptomycin.
AMJ2-C8 macrophages were seeded into six-well multidishes at a density of 2.5 × 10^5 cells/well, and sIL-1RI, IL-1Ra or various concentrations of Ilantide were added to the cultures. Treatment with 100 μM hydrocortisone (Sigma-Aldrich, Brøndby, Denmark) was used as a positive control. After 10-minute incubation at 37°C, 1.2 pM IL-1β or IFN-γ (R&D Systems) was added to activate the macrophages. L929 cells were seeded onto a 96-well plate (Nunc, Roskilde, Denmark) at a density 0.2 × 10^2 cells/ml. Both cell cultures were incubated for 24 hours at 37°C. Conditioned medium from macrophages was collected and added to the L929 cell cultures together with actinomycin D (0.6 μg/well; Sigma-Aldrich). TNF-α is known to induce classic apoptosis in L929 cells in the presence of actinomycin D [12]. After 24-hour incubation at 37°C, 20 μl of 3-(4,5-dimethylthiazol-2-yl)-5-(3-carboxymethoxyphenyl)-2-(4-sulfophenyl)-2H-tetrazolium (Promega, Madison, WI, USA) were added to each well and incubated at 37°C in the dark for 45 minutes, then measured in an ELISA reader at 490 nm. To calculate the amount of TNF-α in the conditioned medium, fibroblasts were treated with standard concentrations of TNF-α (R&D Systems).

The next experiment concerns the target T1, IL-1RI–IL-1β binding (Homo sapiens, UniProt P14778).
T1 construct: purchased R&D Systems
T1 sequence (P14778 18-336 limits assumed): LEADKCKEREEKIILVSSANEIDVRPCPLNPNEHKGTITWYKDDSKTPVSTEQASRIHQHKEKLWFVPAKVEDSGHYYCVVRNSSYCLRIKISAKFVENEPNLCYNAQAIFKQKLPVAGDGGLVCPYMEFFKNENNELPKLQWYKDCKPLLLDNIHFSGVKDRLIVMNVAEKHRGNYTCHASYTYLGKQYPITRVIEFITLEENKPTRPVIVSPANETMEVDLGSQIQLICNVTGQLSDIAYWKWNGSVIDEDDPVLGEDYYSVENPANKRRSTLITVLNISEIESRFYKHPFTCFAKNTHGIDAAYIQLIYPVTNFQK
Put plainly: SPR competition: binding of IL-1RI ectodomain to immobilized IL-1β in the presence of peptide. Particulars: three experiments. The protocol: The binding analysis was performed using a Biacore 2000 instrument (GE Healthcare Life Sciences) that contained 150 mM NaCl as running buffer at 25°C with 10 mM sodium phosphate (pH 7.4). The flow rate was 5 μl/min during immobilization. Ilantide peptide, IL-1β or IL-1Ra was immobilized on a CM4 sensor chip according to the manufacturer’s instructions, after which the recombinant ectodomain of IL-1RI (R&D Systems) was injected. The neural cell adhesion molecule (NCAM) immunoglobulin modules 1 and 2 (Ig1 and Ig2) were used as a negative control protein [9]. The data were analyzed using nonlinear curve-fitting with the manufacturer’s software.
Figure 2 Interaction between Ilantide, interleukin 1β, and interleukin 1 receptor antagonist and soluble IL-1 receptor type I. Binding was studied using surface plasmon resonance analysis. […] Binding is expressed as the response difference between the binding of IL-1 receptor type I (IL-1RI) to the sensor chip with the immobilized peptide, IL-1β, or IL-Ra and a blank sensor chip. […] The results from three experiments are expressed as mean RU ± SEM. **P < 0.01 and ***P < 0.001 compared with binding of IL-1RI alone to IL-1β (one-way analysis of variance followed by the Newman-Keuls post hoc test).

The test system of experiment [1] is LPS-induced neuroinflammation. Put plainly: Lipopolysaccharide-induced impairment of social behavior. It is filed as in vivo. Particulars: rat. The procedure:
The peripheral administration of LPS, the active fragment of bacterial endotoxin, results in an increase in the plasma levels of all proinflammatory cytokines and behavioral depression. LPS-induced behavioral depression was assessed by measuring the reduction of the duration of social interaction during 4-minute sessions. Six- to seven-week-old rats were handled for five days, habituated to the test cages and the experiment room and trained for social interaction with three-week-old juvenile rats introduced into the test cage for four minutes two days before the actual experiment. On the day of the experiment, the rats were intraperitoneally injected (i.p.) with saline or LPS (Escherichia coli 0111:B4; Sigma-Aldrich) dissolved in saline (250 μg/kg). Immediately after the i.p. injection, Ilantide-t (Ila; 10 mg/kg, equivalent to 2.1 μmol/kg), Ana ([…], equivalent to 5.8 μmol/kg) or saline was injected subcutaneously. The volume of all of the injections was 1.0 ml/kg. Six experimental groups were used: vehicle i.p./vehicle s.c. (veh/veh; n = 10), vehicle i.p./Ilantide-t s.c. (veh/Ila; n = 8), vehicle i.p./Ana s.c. (veh/Ana; n = 9), LPS i.p./vehicle s.c. (LPS/veh; n = 10), LPS i.p./Ilantide-t s.c. (LPS/Ila; n = 11) and LPS i.p./Ana s.c. (LPS/Ana; n = 11). The injections and weighing of the rats were performed immediately after the first test session (0 h), and the animals were tested and weighed again 2, 4, 6, 8, and 24 hours later. Different juvenile animals were presented on each occasion. Social interaction consisted of anogenital sniffing, licking and chewing the fur of the juveniles by the experimental animals and was monitored with a video camera. […] The duration of social interaction at each time point is expressed as the percentage of baseline values and was averaged for each experimental group. Social interaction was scored by an observer who was blinded to the treatment of the animals. For evaluation of levels of pro- and anti-inflammatory cytokines in blood, rats were injected with LPS and then immediately with either vehicle (n = 8) or Ilantide-t (n = 8) as described above. In addition, a control group of animals (n = 4) was treated with Ilantide-t alone (control). Blood samples were collected at 0, 2 and 6 hours after injections as described for the pharmacokinetics study and stored at -20°C until use. The levels of IL-6, IFN-γ and IL-10 were determined using corresponding rat ELISA kits according to the manufacturer’s protocols (all from BD Biosciences, San Diego, CA, USA).

With “IL-1Ra: recombinant interleukin 1 receptor antagonist purchased from R&D Systems”, the “Inhibition of IL-1β-induced TNF-α secretion in macrophages” value with AMJ2-C8 macrophages was “significantly inhibited”.
“I: SGRKSSKMQAKK-NH2 / II: SGRKSSKMQAK / III: SGRKSSKMQA / IV: SGRKSSKMQA (amide I:11-IV:C, I:12-II:C, II:11-III:C; C-terminus assumed) [Ilantide-t]”: the “Inhibition of binding between IL-1RI and IL-1β” value on IL-1RI–IL-1β binding was “dose-dependently inhibited”. Besides, the “Inhibition of IL-1β-induced TNF-α secretion in macrophages” value in the experiment with AMJ2-C8 macrophages is recorded as “significantly inhibited”. For the same substance, in experiment [1] (2 hours after LPS administration, Ilantide-t 10 mg/kg s.c., ELISA, P < 0.01), the IL-10 plasma levels result is given as “increase in IL-10 plasma levels”. In experiment [1] (6 hours following LPS injection, Ilantide-t 10 mg/kg s.c., ELISA, tendency toward reduction), the “Plasma levels of proinflammatory cytokines (IL-6 and IFN-γ)” value was “not statistically significant”. In addition, the “Effect on LPS-induced body weight decrease” value in experiment [1] (24 hours after LPS 250 μg/kg i.p., Ilantide-t 10 mg/kg, Ana 100 mg/kg s.c., P < 0.05) is given as “attenuated the anorexigenic effect of LPS”. Also, the “Effect on LPS-induced depression of social activity (sickness behavior)” value in experiment [1] (LPS 250 μg/kg i.p., Ilantide-t 10 mg/kg s.c., Ana 100 mg/kg s.c., 2 to 24 hours) is recorded as “attenuated social depression”.

(Values after PMC3923439, “Anti-inflammatory properties of a novel peptide interleukin 1 receptor antagonist” (Journal of Neuroinflammation, 2014).)
